Measurements published in the supplement of paper PMC4862054.

Key:
Conditions in all cases: incubation time: 72 h
[1] = system: SK-BR-3; experiment: normalised response (% of control), CellTiter-Glo; higher = more viable cells (100 = DMSO, 0 = benzethonium chloride kill control)
Experimental: (§1)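 DSRT, 72 h incubation, CellTox Green / CellTiter-Glo readout. Signal is normalised to DMSO and benzethonium chloride controls. Value is the normalised response at dose 3.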

[2] = system: MDA-MB-436; experiment: as above
Experimental: as §1

[3] = system: MDA-MB-231; experiment: as above
Experimental: as §1

[4] = system: HCC1143; experiment: as above
Experimental: as §1

[5] = system: CAL-85-1; experiment: as above
Experimental: as §1

[6] = system: CAL-148; experiment: as above
Experimental: as §1

[7] = system: BT-474; experiment: as above
Experimental: as §1

[8] = system: MCF-10A; experiment: as above
Experimental: as §1

[9] = system: BT-549; experiment: as above
Experimental: as §1

[10] = system: HDQ-P1; experiment: as above
Experimental: as §1

[11] = system: DU-4475; experiment: as above
Experimental: as §1

[12] = system: HCC1599; experiment: as above
Experimental: as §1

[13] = system: CAL-120; experiment: as above
Experimental: as §1

[14] = system: Hs578T; experiment: as above
Experimental: as §1

[15] = system: HCC1937; experiment: as above
Experimental: as §1

[16] = system: MDA-MB-468; experiment: as above
Experimental: as §1

[17] = system: MFM-223; experiment: as above
Experimental: as §1

[18] = system: CAL-51; experiment: as above
Experimental: as §1

[19] = system: MDA-MB-453; experiment: as above
Experimental: as §1

[20] = system: MDA-MB-436; experiment: normalised response (% of control), CellTox Green; higher = less cell death (100 = DMSO, 0 = benzethonium chloride kill control)
Summary of the method: (§2)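 Compound was dispensed into 384-well plates at 5 concentrations in 10-fold steps spanning a 10,000-fold range specific to that compound. Breast cancer cell lines were added as 20 µl suspension and left for 72 h before CellTox Green fluorescence (485/520 nm) and then CellTiter-Glo luminescence, read after 10 min at room temperature. Each reported value is the normalised signal at one concentration, with 0.1 % DMSO set at 100 and a positive kill control at 0 on each plate.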

[21] = system: MDA-MB-231; experiment: as above
Summary of the method: as §2

[22] = system: HCC1143; experiment: as above
Summary of the method: as §2

[23] = system: CAL-85-1; experiment: as above
Summary of the method: as §2

[24] = system: CAL-148; experiment: as above
Summary of the method: as §2

[25] = system: BT-474; experiment: as above
Summary of the method: as §2

[26] = system: MCF-10A; experiment: as above
Summary of the method: as §2

[27] = system: BT-549; experiment: as above
Summary of the method: as §2

[28] = system: HDQ-P1; experiment: as above
Summary of the method: as §2

[29] = system: DU-4475; experiment: as above
Summary of the method: as §2

[30] = system: HCC1599; experiment: as above
Summary of the method: as §2

[31] = system: CAL-120; experiment: as above
Summary of the method: as §2

[32] = system: Hs578T; experiment: as above
Summary of the method: as §2

[33] = system: MDA-MB-468; experiment: as above
Summary of the method: as §2

[34] = system: MFM-223; experiment: as above
Summary of the method: as §2

[35] = system: CAL-51; experiment: as above
Summary of the method: as §2

[36] = system: MDA-MB-453; experiment: as above
Summary of the method: as §2

[37] = system: HCC1937; experiment: as above
Summary of the method: as §2

| Structure (SMILES) | normalised response [1] | normalised response [2] | normalised response [3] | normalised response [4] | normalised response [5] | normalised response [6] | normalised response [7] | normalised response [8] | normalised response [9] | normalised response [10] | normalised response [11] | normalised response [12] | normalised response [13] | normalised response [14] | normalised response [15] | normalised response [16] | normalised response [17] | normalised response [18] | normalised response [19] | normalised response [20] | normalised response [21] | normalised response [22] | normalised response [23] | normalised response [24] | normalised response [25] | normalised response [26] | normalised response [27] | normalised response [28] | normalised response [29] | normalised response [30] | normalised response [31] | normalised response [32] | normalised response [33] | normalised response [34] | normalised response [35] | normalised response [36] | normalised response [37] |
| --- | --- | --- | --- | --- | --- | --- | --- | --- | --- | --- | --- | --- | --- | --- | --- | --- | --- | --- | --- | --- | --- | --- | --- | --- | --- | --- | --- | --- | --- | --- | --- | --- | --- | --- | --- | --- | --- |
| Cc1c(N)nc([C@H](CC(N)=O)NC[C@H](N)C(N)=O)nc1C(=O)N[C@H](C(=O)N[C@H](C)[C@@H](O)[C@H](C)C(=O)N[C@H](C(=O)NCCc1nc(-c2nc(C(=O)NCCC[S+](C)C)cs2)cs1)[C@@H](C)O)[C@@H](OC1OC(CO)C(O)C(O)C1OC1OC(CO)C(O)C(OC(N)=O)C1O)c1cnc[nH]1 (stereo partly drawn) [Bleomycin] (100 nM) | 92.8% | 89.1% | 89.3% | 90.6% | 96.8% | 87.7% | 95.8% | 90.6% | 77.2% | 99.5% | 93.8% | 94.6% | 95.3% | 93.2% | 84.2% | 80.4% | 95.6% | 55% | 90.2% | 58.6% | 104% | 91.3% | 99.8% | 93.5% | 98.1% | 93.2% | 87.6% | 110% | 98.6% | 91.9% | 95.1% | 81.2% | 151% | 101% | 36.9% | 103% |  |
| CCCCCOC(=O)Nc1nc(=O)n([C@@H]2O[C@H](C)[C@@H](O)[C@H]2O)cc1F [Capecitabine] (100 nM) | 100% | 102% | 99.5% | 98.7% | 95.4% | 114% | 98.7% | 95.5% | 102% | 97.5% | 106% | 98.3% | 103% | 98.8% | 97.2% | 103% | 102% | 99.5% | 103% | 95.3% | 104% | 87.6% | 105% | 99.1% | 91.4% | 101% | 89.4% | 105% | 99.9% | 95.2% | 99.9% |  | 127% | 104% | 105% | 97.3% | 103% |
| C[C@@H]1C[C@H]2[C@@H]3CCC4=CC(=O)C=C[C@]4(C)[C@@]3(F)[C@@H](O)C[C@]2(C)[C@@]1(O)C(=O)CO [Dexamethasone] (100 nM) | 88.4% | 101% | 154% | 101% | 113% | 91.2% | 145% | 84.3% | 103% | 84.8% | 102% | 95.2% | 72.8% | 92.5% | 99% | 103% | 95.7% | 101% | 83.8% | 67.3% |  | 101% | 107% | 97.2% | 96.4% | 97% | 101% |  | 96.4% | 96% | 96.7% | 114% | 97.2% | 95.7% | 99.4% | 95.5% | 68% |
| Cc1c(C(=O)Nc2ccc(N3C[C@@H](C)O[C@@H](C)C3)nc2)cccc1-c1ccc(OC(F)(F)F)cc1 [Erismodegib] (100 nM) | 88.6% | 92.3% | 99.9% | 96.4% | 92.6% | 92.7% | 91.2% | 89.6% | 102% | 91.3% | 99.4% | 93.5% | 101% | 101% | 103% | 90.4% | 85.6% | 68.9% | 85% | 101% | 97.2% | 98.8% | 88.8% | 105% | 97.1% | 94.9% | 104% | 99.6% | 95.8% | 110% | 94.8% | 109% |  | 97.2% | 93.3% | 98.6% |  |
| O=NN(CCCl)C(=O)NC1CCCCC1 [Lomustine] (100 nM) | 102% | 101% | 99.4% | 104% | 95.6% | 91.5% | 104% | 98.4% | 103% | 104% | 107% | 90.1% | 97.7% | 99.6% | 89.4% | 96.1% | 110% | 104% | 101% | 108% | 110% | 104% | 113% |  | 101% | 103% | 77.1% | 96.1% | 103% | 101% | 102% | 102% | 103% | 105% | 109% | 106% | 96.5% |
| N[C@@H](Cc1ccc(N(CCCl)CCCl)cc1)C(=O)O [Melphalan] (125 nM) | 84.8% | 98.1% | 83.3% | 90.2% | 105% | 78.3% | 91.5% | 103% | 100% | 90.1% | 92.7% | 104% | 108% | 93.1% | 83.4% | 75.4% | 91.5% | 67.5% | 79.2% | 103% | 50.5% | 102% | 104% | 89.5% | 102% | 98.4% | 103% | 108% | 107% | 88.9% | 101% |  | 87.3% | 96.1% | 75.1% | 76.5% | 99.1% |
| C[C@]12C=CC(=O)C=C1CC[C@@H]1[C@@H]2C(=O)C[C@@]2(C)[C@H]1CC[C@]2(O)C(=O)CO [Prednisone] (100 nM) | 104% | 101% | 107% | 105% | 103% | 117% | 107% | 109% | 99.8% | 101% | 101% | 133% | 103% | 101% | 101% | 99.3% | 102% | 68.4% | 113% | 92.4% |  | 119% | 104% | 64.5% | 103% | 85.8% | 96.7% |  | 103% | 105% | 99.5% | 111% | 126% | 78.5% | 101% | 107% |  |
| CO[C@H]1C[C@@H]2CC[C@@H](C)[C@@](O)(O2)C(=O)C(=O)N2CCCC[C@H]2C(=O)O[C@H]([C@H](C)C[C@@H]2CC[C@@H](O)[C@H](OC)C2)CC(=O)[C@H](C)/C=C(\C)[C@@H](O)[C@@H](OC)C(=O)[C@H](C)C[C@H](C)/C=C/C=C/C=C/1C [Sirolimus] (1 nM) | 95.4% | 92.4% | 101% | 92.5% | 78.4% | 94.2% | 90.5% | 112% | 83.5% | 102% | 98.7% | 103% | 98% | 88.2% | 85.6% | 71.1% | 96.5% | 90.1% | 93.7% | 79.2% | 109% | 78.7% | 105% | 103% | 102% | 91.9% | 78.5% | 97.1% | 105% | 94.8% | 97.4% |  | 119% | 92.6% | 107% | 109% |  |
